This test concerns the target PFKFB3 (Homo sapiens (Human), UniProt Q16875). Kind of test: PFKFB3 kinase activity, Method A (F-2,6-P2 production, coupled PPi-PFK/NADH assay). It counts as biochemical. From the text:
The PFKFB3 (placenta form) and PFKFB4 were produced and purified to homogeneity from E. coli at Biovitrum and at Sprint Bioscience. All other reagents were purchased from commercial sources. Two independent methods have been used for determination of the kinase activity of PFKFB3 (Method A and Method B). Method B has been used for determination of the kinase activity of PFKFB4.
Method A: The kinase activity of the bi-functional enzyme is readily quantified based on the production of F-2,6-P2 as described by Van Schaftingen et al. (1982) Eur. J. Biochem. 129, 191-5. This sensitive assay is based on the potent activation of pyrophosphate dependent phosphofructokinase-1 (PPi-PFK) from potato tubers by F-2,6-P2. The use of a series of coupled enzymes leads to a consumption of NADH (nicotinamide adenine dinucleotide) that can be followed spectrophotometrically (an updated protocol is available in Van Schaftingen, (1984) Methods of Enzymatic Analysis (Bergmeyer, H. U., ed.), 3rd edn., vol. 6, pp. 335-341, Verlag Chemie, Weinheim). A protocol for measurements in 96-well microtiter plate format is also available (Bruni et al., (1989) Anal. Biochem. 178, 324-6). These assay protocols have been adopted for the measurement of the kinase activity of PFKFB3 with some modifications as described in the protocol below.
The assay was run in 96-well microtiter plates (Costar 3365 round bottom polypropylene) by consecutive additions of 30 μl each of a test compound solution (diluted from a DMSO stock solution), a PFKFB3 solution and a substrate (fructose-6-phosphate (F6P) and adenosine-5′-triphosphate (ATP)) containing solution. […] The final concentrations of all reagents in a total assay volume of 90 μl per well were: • 50 mM Tris-acetate at pH 8.0 • 0.1 mM EDTA (ethylene diamine tetraacetic acid) • 10 mM MgCl2 • 5 mM Na2HPO4 (buffered by the Tris-acetate to a final pH of 8.0) • 5 nM PFKFB3 • 4 μM ATP • 100 μM F6P (acid treated and then neutralized to remove any contaminating F-2,6-P2; see Van Schaftingen, 1984) • 1 mM dithiothreitol (DTT) • 0.005% Tween-20
A test compound at various concentrations (which also added 0.83% DMSO to the final solution)
The enzymatic reaction was allowed to proceed for 10 minutes at room temperature while on a plate shaker at medium speed (750 RPM). The reaction was then terminated by the addition of 90 μl of a 0.4 M NaOH solution to all wells. The plate was then placed on the plateshaker at the same speed for two minutes to allow sufficient mixing. All samples were then diluted by a factor of 10 by transferring 20 μl from each well to the corresponding well of a new plate with 180 μl distilled water predispensed to all wells.
The next step in the protocol was quantification of the levels of F-2,6-P2 in each well of the microtiter plate. This was done by transferring 20 μl of the content in each well to the corresponding position in a new plate (Nunc 269620 transparent 96-well plate). […] To ensure that all measured values were within the linear range of the response (measured to be between 0-1 nM of F-2,6-P2 as also described by Van Schaftingen) the same volume of a 2.5 nM and a 5.0 nM standard sample were also added to column 12 (as all samples were diluted five-fold in the assay procedure this corresponds to 0.5 and 1.0 nM samples). The procedure then involved consecutive additions of three solutions with the following premixed components: • Assay-mix (20 μl): Tris-acetate at pH 8.0, NADH and Mg(OAc)2 • PPi/F6P-mix (40 μl): Pyrophosphate and F6P • Enzyme-mix (20 μl): Tris-acetate at pH 8.0, aldolase, triose phosphate isomerase, glycerol-3-phosphate dehydrogenase, pyrophosphate-dependent phosphofructokinase from potato tubers and bovine serum albumin (BSA) […]
Sequence of PFKFB3 (Q16875 whole entry): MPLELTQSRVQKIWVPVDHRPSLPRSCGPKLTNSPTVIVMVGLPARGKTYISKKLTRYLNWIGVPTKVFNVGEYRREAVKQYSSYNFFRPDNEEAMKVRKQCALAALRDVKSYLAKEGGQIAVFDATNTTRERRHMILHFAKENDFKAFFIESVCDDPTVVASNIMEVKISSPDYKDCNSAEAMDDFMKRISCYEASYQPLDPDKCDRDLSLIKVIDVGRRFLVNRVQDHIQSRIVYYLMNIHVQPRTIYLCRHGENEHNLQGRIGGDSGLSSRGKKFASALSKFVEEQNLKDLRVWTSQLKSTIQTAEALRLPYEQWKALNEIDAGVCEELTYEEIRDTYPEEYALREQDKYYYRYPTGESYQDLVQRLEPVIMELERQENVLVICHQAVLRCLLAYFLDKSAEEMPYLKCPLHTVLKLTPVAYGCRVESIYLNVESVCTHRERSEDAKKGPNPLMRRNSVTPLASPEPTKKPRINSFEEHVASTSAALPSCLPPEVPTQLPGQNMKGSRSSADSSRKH
For the molecule `CC(=O)Nc1ccc2sc(S(=O)(=O)Nc3cccc(C(=O)O)c3)c(C)c2c1` [Example 49, 3-({[5-(Acetylamino)-3-methyl-1-benzothien-2-yl]sulfonyl}amino)benzoic acid], the IC50 was determined as 5.07 µM.

In turn, `NC(=O)c1cccc(-c2ccc(S(=O)(=O)Nc3cccc(-c4nnn[nH]4)c3)s2)c1` [Example 58, 3-[5-[[3-(1H-Tetrazol-5-yl)phenyl]sulfamoyl]-2-thienyl]benzamide] had an IC50 of 0.54 µM.

Molecule `Cc1c(S(=O)(=O)Nc2cccc(CC(=O)O)c2)sc2ccc(C(C)C)cc12` [Example 15, (3-{[(5-Isopropyl-3-methyl-1-benzothien-2-yl)sulfonyl]amino}phenyl)acetic acid] had an IC50 of 0.23 µM.

`Cc1nc(NS(=O)(=O)c2sc3ccc(C(C)C)cc3c2C)sc1C(=O)O` [Example 8, 2-{[(5-Isopropyl-3-methyl-1-benzothien-2-yl)sulfonyl]amino}-4-methyl-1,3-thiazole-5-carboxylic acid] returned an IC50 of 0.61 µM. Against the preceding molecule, the IC50 is about 2.7-fold higher.

Turning to `O=S(=O)(Nc1cccc(-c2nnn[nH]2)c1)c1ccc(-c2nsc(Cl)n2)s1` [Example 59, 5-(5-Chloro-1,2,4-thiadiazol-3-yl)-N-[3-(1H-tetrazol-5-yl)phenyl]thiophene-2-sulfonamide], the IC50 is 0.56 µM.

Molecule `Cc1c(S(=O)(=O)Nc2cccc(-c3nnn(CC(=O)O)n3)c2)sc2ccc(C(C)C)cc12` [Example 12, [5-(3-{[(5-Isopropyl-3-methyl-1-benzothien-2-yl)sulfonyl]amino}phenyl)-2H-tetrazol-2-yl]acetic acid] returned an IC50 of 1.02 µM.

`O=S(=O)(Nc1cccc(-c2nnn[nH]2)c1)c1ccc(F)cc1Cl` [Example 81, 2-Chloro-4-fluoro-N-[3-(1H-tetrazol-5-yl)phenyl]benzenesulfonamide]: it took 9.84 µM to reach half-maximal inhibition (IC50).

In turn, `Cc1c(S(=O)(=O)Nc2cncc(C(=O)O)c2)sc2ccc(C(C)C)cc12` [Example 9, 5-{[(5-Isopropyl-3-methyl-1-benzothien-2-yl)sulfonyl]amino}nicotinic acid] came in with an IC50 of 0.73 µM.

Molecule `O=S(=O)(Nc1cccc(-c2nnn[nH]2)c1)c1cccc(-c2ccc(C(F)(F)F)cc2)c1` [Example 55, N-[3-(1H-Tetrazol-5-yl)phenyl]-3-[4-(trifluoromethyl)phenyl]benzenesulfonamide] came in with an IC50 of 5.75 µM.

Regarding `Cc1c(S(=O)(=O)Nc2cccc(-c3nnn[nH]3)c2)sc2ccc(N)cc12` [Example 48, 5-Amino-3-methyl-N-[3-(1H-tetrazol-5-yl)phenyl]-1-benzothiophene-2-sulfonamide], the IC50 amounted to 0.36 µM.

Consider `Cc1c(S(=O)(=O)Nc2cccc(C(=O)O)c2)oc2ccc(C(C)C)cc12` [Example 14, 3-{[(5-Isopropyl-3-methyl-1-benzofuran-2-yl)sulfonyl]amino}benzoic acid], for which the IC50 came to 0.28 µM.

Regarding `O=S(=O)(Nc1cccc(-c2nnn[nH]2)c1)c1ccc(-c2cnco2)s1` [Example 2, 5-(1,3-Oxazol-5-yl)-N-[3-(1H-tetrazol-5-yl)phenyl]thiophene-2-sulfonamide], the IC50 was found to be 3.91 µM.

Turning to `O=S(=O)(Nc1cccc(-c2nnn[nH]2)c1)c1ccc(Br)cc1C(F)(F)F` [Example 56, 4-Bromo-N-[3-(1H-tetrazol-5-yl)phenyl]-2-(trifluoromethyl)benzenesulfonamide], the IC50 was found to be 1.12 µM.

`O=S(=O)(Nc1cccc(-c2nnn[nH]2)c1)c1ccc(-c2cnco2)cc1` [Example 83, 4-(1,3-Oxazol-5-yl)-N-[3-(1H-tetrazol-5-yl)phenyl]benzenesulfonamide] gave an IC50 of 8.45 µM.

For `O=S(=O)(Nc1cccc(-c2nnn[nH]2)c1)c1cccc(-c2cc(Cl)cc(Cl)c2)c1` [Example 52, 3-(3,5-Dichlorophenyl)-N-[3-(1-H-tetrazol-5-yl)phenyl]benzenesulfonamide], inhibition was half-maximal at 2.54 µM (IC50).

The molecule `O=S(=O)(Nc1cccc(-c2nnn[nH]2)c1)c1ccc(Cl)c(Cl)c1Cl` [Example 1, 2,3,4-Trichloro-N-[3-(1H-tetrazol-5-yl)phenyl]benzenesulfonamide] displayed an IC50 of 0.28 µM.

Consider `Cc1c(S(=O)(=O)Nc2cccc(-c3nnn[nH]3)c2)oc2ccc(C(C)C)cc12` [Example 13, 5-Isopropyl-3-methyl-N-[3-(1H-tetrazol-5-yl)phenyl]-1-benzofuran-2-sulfonamide], for which the IC50 is 0.08 µM.

For the molecule `Cc1cc(Cl)cc(Cl)c1S(=O)(=O)Nc1cccc(-c2nnn[nH]2)c1` [Example 53, 2,4-Dichloro-6-methyl-N-[3-(1H-tetrazol-5-yl)phenyl]benzenesulfonamide], the half-inhibitory concentration (IC50) is 1.78 µM.

The molecule `Cc1c(S(=O)(=O)Nc2cc(C(=O)O)cc([N+](=O)[O-])c2)sc2ccc(C(C)C)cc12` [Example 11, 3-{[(5-Isopropyl-3-methyl-1-benzothien-2-yl)sulfonyl]amino}-5-nitrobenzoic acid] gave an IC50 of 0.85 µM.

For the molecule `Cc1nc(-c2ccc(S(=O)(=O)Nc3cccc(-c4nnn[nH]4)c3)s2)cs1` [Example 25, 5-(2-Methyl-1,3-thiazol-4-yl)-N-[3-(1H-tetrazol-5-yl)phenyl]thiophene-2-sulfonamide], half-maximal inhibition (IC50) was put at 0.31 µM.

On to `O=S(=O)(Nc1cccc(-c2nnn[nH]2)c1)c1ccc2ccccc2c1` [Example 20, N-[3-(1H-Tetrazol-5-yl)phenyl]naphthalene-2-sulfonamide], for which the midpoint of inhibition, the IC50, lay at 0.85 µM.

In turn, `Cc1c(S(=O)(=O)Nc2cccc(C(=O)O)n2)sc2ccc(C(C)C)cc12` [Example 10, 6-{[(5-Isopropyl-3-methyl-1-benzothien-2-yl)sulfonyl]amino}pyridine-2-carboxylic acid] returned an IC50 of 0.81 µM.

Molecule `COc1ccc(-c2cccc(S(=O)(=O)Nc3cccc(-c4nnn[nH]4)c3)c2)cc1` [Example 19, 4′-Methoxy-N-[3-(1H-tetrazol-5-yl)phenyl]biphenyl-3-sulfonamide] gave an IC50 of 0.72 µM.

Regarding `O=C(O)c1cccc(NS(=O)(=O)c2ccc(-c3ccccn3)s2)c1` [Example 78, 3-{[(5-Pyridin-2-yl-2-thienyl)sulfonyl]amino}benzoic acid], the IC50 was 6.69 µM. Compared with the last molecule, the IC50 is about 9.3-fold higher.

Take `O=C(O)c1cccc(NS(=O)(=O)c2ccc(-c3ccon3)s2)c1` [Example 79, 3-{[(5-Isoxazol-3-yl-2-thienyl)sulfonyl]amino}benzoic acid]: inhibition was half-maximal at 6.31 µM (IC50). This IC50 and that of the molecule before are within 1.5-fold of each other.

As for `O=S(=O)(Nc1cccc(-c2nnn[nH]2)c1)c1ccc(-c2ccccc2)cc1` [Example 31, N-[3-(1H-Tetrazol-5-yl)phenyl]biphenyl-4-sulfonamide], the IC50 stood at 1.39 µM.

Molecule `O=S(=O)(Nc1cccc(-c2nnn[nH]2)c1)c1cccc(-c2ccc(F)cc2)c1` [Example 17, 4′-Fluoro-N-[3-(1H-tetrazol-5-yl)phenyl]biphenyl-3-sulfonamide] displayed an IC50 of 0.45 µM.

The IC50 is the point on the concentration scale where inhibition reaches its midpoint. Low readings indicate higher potency, high ones lower potency.

These data come from patent US9233946B2, “Sulfonamide compounds” (KANCERA AB, priority 2010, dated 2016).
